For the assay, the system named is Plasmodium berghei. The experiment in a line: Luciferase/luciferin-expressing antifolate-resistant parasites were used to infect a culture of HepG2 cells that were pre-incubated with compounds. Infected hepatocytes emit light due to the luciferase reaction. Assay results are presented as the percent inhibition of light emission compared to control. […]. To be noted: sporozoite; for IC90: read-out: LUCIFERASE INFECTION ASSAY - IC90. In kind it is functional.

Setting [1] is: read-out: LUCIFERASE INFECTION ASSAY - IC50.

What is called IC50 is the concentration that inhibits the measured activity by half. One may read the IC90 as the point of the concentration-response curve where the effect stands at 90%.

`Cc1ccc(Cn2ncc3c(C(=O)N4CCN(c5ncccn5)CC4)cc(C)nc32)cc1`: the IC90 was over 10 µM. In addition, the IC50 (HEPG2TOX_HILL_SLOPE 0.12, HEPG2TOX_R_SQUARED 0.204, PBLUC_HILL_SLOPE 1.61, PBLUC_R_SQUARED 0.516, read-out: LUCIFERASE INFECTION ASSAY - IC50) is 8.29 µM.

Consider `C[C@H]1O[C@@H](O[C@H]2[C@@H](O)C[C@H](O[C@H]3[C@@H](O)C[C@H](O[C@H]4CC[C@]5(C)C6CC[C@]7(C)[C@@H](C8=CC(=O)OC8)CC[C@]7(O)C6CC[C@@H]5C4)O[C@@H]3C)O[C@@H]2C)C[C@H](O)[C@H]1O` (some centres undefined), for which the IC90 is 3.31 µM. Besides, the IC50 (HEPG2TOX_HILL_SLOPE 2.7, HEPG2TOX_R_SQUARED 0.866, PBLUC_HILL_SLOPE 1.79, PBLUC_R_SQUARED 0.476, read-out: LUCIFERASE INFECTION ASSAY - IC50) amounted to 0.969 µM.

As to `Cc1ccc(-c2c(C)sc3[nH]c(CN(Cc4nc(=O)c5c(-c6ccc(C)cc6)c(C)sc5[nH]4)Cc4ccccc4CN4CCCC4)nc(=O)c23)cc1`, the IC90 was over 10 µM. Moreover, the IC50 under setting [1] was over 10 µM.

Take `NC(CCc1ccccc1)c1csc(NC(=O)Nc2ccccc2)n1` (centres undefined): the IC90 was over 9.36 µM. Also, where the note is “PBLUC_HILL_SLOPE 42.7, PBLUC_R_SQUARED 0.194, read-out: LUCIFERASE INFECTION ASSAY - IC50”, the IC50 is 9.14 µM.

Consider `CC(Sc1nc2ccccc2c(=O)n1C)C(=O)Nc1cc([N+](=O)[O-])ccc1Cl` (centres undefined), for which the IC90 is over 10 µM. The IC50 (HEPG2TOX_HILL_SLOPE 7.72, HEPG2TOX_R_SQUARED 0.92, read-out: LUCIFERASE INFECTION ASSAY - IC50) was over 10 µM.

Consider `Cc1cc(=O)[nH]n(-c2ccccc2)c1=O`, for which the IC90 stood at 8.7 µM. The IC50 (HEPG2TOX_HILL_SLOPE 8.84, HEPG2TOX_R_SQUARED 0.75, PBLUC_HILL_SLOPE 7.32, PBLUC_R_SQUARED 0.521, read-out: LUCIFERASE INFECTION ASSAY - IC50) stood at 6.44 µM.

For the compound `Clc1ccc(SCc2cc(N3CCOCC3)nc(-c3ccccn3)n2)cc1`, the IC90 came to 4.86 µM. The half-maximal inhibitory concentration (IC50) under setting [1] was found to be 4.81 µM.

Turning to `COCOc1ccc(-c2cc(-c3ccc(S(C)(=O)=O)cc3)cnc2N)cc1`, the IC90 stood at 1.3 µM. Also, the half-inhibitory concentration (IC50) (PBLUC_HILL_SLOPE 4.16, PBLUC_R_SQUARED 0.931, read-out: LUCIFERASE INFECTION ASSAY - IC50) was determined as 0.765 µM.

On to `Cc1ccc(N2C(=O)C=CC2=O)cc1N1C(=O)C=CC1=O`, for which the IC90 is over 11.7 µM. The IC50 under setting [1] came to 7.78 µM.

On to `OC1CCC(Nc2nn3cc(-c4ccccc4)nc3s2)CC1` (centres undefined), for which the IC90 was 0.247 µM. Also, the IC50 (FFLUC_HILL_SLOPE 1.59, FFLUC_R_SQUARED 0.907, PBLUC_HILL_SLOPE 0.891, PBLUC_R_SQUARED 0.938, read-out: LUCIFERASE INFECTION ASSAY - IC50) was found to be 0.0209 µM.

With `Nc1ncc(-c2cc(F)c(F)c(F)c2)cc1-c1cccc(O)c1`, the IC90 is over 10.4 µM. Also, the half-inhibitory concentration (IC50) under setting [1] is over 10.4 µM.

Regarding `O=C(Nc1cccc(Cn2ccnc2)c1)c1nn(-c2ccccc2)c2c1CCC2`, the IC90 was over 10 µM. Moreover, the IC50 under setting [1] was over 10 µM.

As to `O=C(NC1CC1)c1ccc(CN(C(=O)Nc2cccc3ccccc23)C2CC2)cc1`, the IC90 is 4.41 µM. For the same compound, under “PBLUC_HILL_SLOPE 14, PBLUC_R_SQUARED 0.411, read-out: LUCIFERASE INFECTION ASSAY - IC50”, the IC50 was 3.77 µM.

As for `C=CCN(CC(=O)NC1CCS(=O)(=O)C1)S(=O)(=O)c1ccccc1C(F)(F)F` (centres undefined), the IC90 was over 10 µM. Besides, the IC50 (FFLUC_HILL_SLOPE 0.888, FFLUC_R_SQUARED 0.174, read-out: LUCIFERASE INFECTION ASSAY - IC50) is over 10 µM.

As for `CC(C)n1ncc2c(C(=O)Nc3sccc3C#N)cc(C3CC3)nc21`, the IC90 was over 10 µM. In addition, the IC50 (FFLUC_HILL_SLOPE 1.6, FFLUC_R_SQUARED 0.58, HEPG2TOX_HILL_SLOPE 1.47, HEPG2TOX_R_SQUARED 0.871, PBLUC_HILL_SLOPE 3.01, PBLUC_R_SQUARED 0.133, read-out: LUCIFERASE INFECTION ASSAY - IC50) turned out to be 5.55 µM.

As to `COc1ccc(O)c(/C=N/Nc2ncc(C(F)(F)F)cc2Cl)c1`, the IC90 worked out at 3.73 µM. The IC50 (HEPG2TOX_HILL_SLOPE 3.8, HEPG2TOX_R_SQUARED 0.813, PBLUC_HILL_SLOPE 18.3, PBLUC_R_SQUARED 0.305, read-out: LUCIFERASE INFECTION ASSAY - IC50) was determined as 3.31 µM.

For `CC(C)Cc1ccc(C(C)c2nn3c(-c4cccnc4)nnc3s2)cc1` (centres undefined), the IC90 amounted to 5.44 µM. Also, under “HEPG2TOX_HILL_SLOPE 0.365, HEPG2TOX_R_SQUARED 0.691, PBLUC_HILL_SLOPE 1.54, PBLUC_R_SQUARED 0.896, read-out: LUCIFERASE INFECTION ASSAY - IC50”, the IC50 was determined as 1.31 µM.

For `CSc1ccc(C=C2C(=O)OC(C)(C)OC2=O)s1`, the IC90 was over 11.6 µM. Moreover, the IC50 (HEPG2TOX_HILL_SLOPE 0.602, HEPG2TOX_R_SQUARED 0.801, PBLUC_HILL_SLOPE 0.853, PBLUC_R_SQUARED 0.0835, read-out: LUCIFERASE INFECTION ASSAY - IC50) was over 11.6 µM.

For `CN(C)CCCn1c(SCC(=O)N2c3ccccc3Sc3ccccc32)nc2ccccc2c1=O`, the IC90 was found to be 9.41 µM. Further, where the note is “PBLUC_HILL_SLOPE 9.03, PBLUC_R_SQUARED 0.19, read-out: LUCIFERASE INFECTION ASSAY - IC50”, the IC50 amounted to 7.38 µM.

With `Cn1c(CSCc2nc(-c3ccc(Cl)cc3)cs2)nnc1SCC(=O)Nc1ccc(Cl)cc1`, the 90% effect concentration (IC90) was over 6.15 µM. The IC50 (HEPG2TOX_HILL_SLOPE 16.7, HEPG2TOX_R_SQUARED 0.854, PBLUC_HILL_SLOPE 1.35, PBLUC_R_SQUARED 0.574, read-out: LUCIFERASE INFECTION ASSAY - IC50) is over 6.15 µM.

For `CC(=O)Nc1ccc(Nc2cc3c(cn2)cc(-c2cccnc2)n3Cc2ccccc2)cc1`, the IC90 was found to be 7.61 µM. For the same compound, the half-maximal inhibitory concentration (IC50) (PBLUC_HILL_SLOPE 3.49, PBLUC_R_SQUARED 0.716, read-out: LUCIFERASE INFECTION ASSAY - IC50) was 4.06 µM.

For the compound `CCOC(=O)c1c(CN2C(=O)NC3(CCCc4sccc43)C2=O)nc2ccccc2c1C` (centres undefined), the IC90 was over 10 µM. Besides, under setting [1], the IC50 was over 10 µM.

On to `COCCNc1ccc2ncc(-c3ccc(Cl)cc3)n2n1`, for which the IC90 was 5.92 µM. In addition, the IC50 (HEPG2TOX_HILL_SLOPE 7.9, HEPG2TOX_R_SQUARED 0.252, PBLUC_HILL_SLOPE 6.86, PBLUC_R_SQUARED 0.283, read-out: LUCIFERASE INFECTION ASSAY - IC50) was 4.3 µM.

Consider `Cc1cc(/C=C2\SC(N3CCOCC3)=NC2=O)c(C)n1-c1cccc(C(F)(F)F)c1`, for which the IC90 is over 10 µM. For the same compound, the IC50 under setting [1] was over 10 µM.

For the compound `CN1N=C2c3ccccc3CCC2C1c1ccc(Cl)cc1` (centres undefined), the IC90 came out at 4 µM. In addition, the IC50 (PBLUC_HILL_SLOPE 2.13, PBLUC_R_SQUARED 0.455, read-out: LUCIFERASE INFECTION ASSAY - IC50) was determined as 1.42 µM.

For `COc1cc(NC(=O)C(C)(C)n2cc(-c3cccnc3)cn2)cc(OC)c1`, the IC90 is over 10 µM. For the same compound, the IC50 under setting [1] was over 10 µM.

Consider `COc1ccc(Cl)cc1NC(=O)N1CCC(Cc2ccccc2)CC1`, for which the IC90 is over 9.2 µM. Also, the IC50 under setting [1] is over 9.2 µM.

For the origin of these results see ChEMBL document CHEMBL4483862, “Open-source discovery of chemical leads for next-generation chemoprotective antimalarials” (2018).
